Assay [1] is described as follows: Selectivity ratio of IC50 for Bacillus anthracis IMPDH to IC50 for Cryptosporidium IMPDH.
Assay [2] has as its target T1, Inosine-5'-monophosphate dehydrogenase (Cryptosporidium parvum, UniProt Q8T6T2).
T1 sequence (Q8T6T2 whole entry): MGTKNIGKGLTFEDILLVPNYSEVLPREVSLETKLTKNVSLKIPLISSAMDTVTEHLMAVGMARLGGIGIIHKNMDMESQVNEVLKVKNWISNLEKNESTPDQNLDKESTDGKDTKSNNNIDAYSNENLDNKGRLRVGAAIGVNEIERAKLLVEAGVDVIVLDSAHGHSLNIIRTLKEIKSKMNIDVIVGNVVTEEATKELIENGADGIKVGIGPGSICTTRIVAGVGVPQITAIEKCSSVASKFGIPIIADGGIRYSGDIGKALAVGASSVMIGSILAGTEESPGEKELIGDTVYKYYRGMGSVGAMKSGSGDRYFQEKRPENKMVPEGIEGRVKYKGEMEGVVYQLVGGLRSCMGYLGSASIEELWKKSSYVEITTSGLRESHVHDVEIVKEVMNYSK
The assay can be described thus: Inhibition of Cryptosporidium IMPDH preincubated for 10 mins before substrate addition by spectrophotometry.

The nature of assay [3]: Antibacterial activity against Bacillus anthracis Sterne 7702 in presence of 0.01 % guanine. It is filed as functional, Bacillus anthracis str. Sterne.
In assay [4] the test system is Bacillus anthracis str. Sterne. In words: Ratio of MIC for Bacillus anthracis Sterne 7702 in presence of 0.01 % guanine to MIC for Bacillus anthracis Sterne 7702. The class given is functional.
Assay [5] has as its system Staphylococcus aureus. The assay can be described thus: Antibacterial activity against Staphylococcus aureus NCTC 8325. The class given is functional.
Assay [6] concerns Staphylococcus aureus. The assay can be described thus: Antibacterial activity against Staphylococcus aureus ATCC 13709 Smith. It is filed as functional.
Assay [7] deals with Staphylococcus aureus. In words: Antibacterial activity against Staphylococcus aureus ATCC 13709 Smith in presence of 0.01 % guanine. It is filed as functional.
Assay [8] deals with Listeria monocytogenes. In words: Antibacterial activity against Listeria monocytogenes 10403S. It is filed as functional.
Assay [9] relates to Staphylococcus aureus. The assay can be described thus: Antibacterial activity against Staphylococcus aureus NCTC 8325 in presence of 0.01 % guanine. The class given is functional.
A short description of assay [10]: Antibacterial activity against Bacillus anthracis Sterne 7702. It is filed as functional, Bacillus anthracis str. Sterne.
For assay [11], the system named is Staphylococcus aureus. The assay can be described thus: Ratio of MIC for Staphylococcus aureus ATCC 13709 Smith in presence of 0.01 % guanine to MIC for Staphylococcus aureus ATCC 13709 Smith. It is filed as functional.
Assay [12] deals with Listeria monocytogenes. The assay can be described thus: Ratio of MIC for Listeria monocytogenes 10403S in presence of 0.01 % guanine to MIC for Listeria monocytogenes 10403S. It is filed as functional.
The subject of assay [13] is Staphylococcus aureus. The assay can be described thus: Ratio of MIC for Staphylococcus aureus NCTC 8325 in presence of 0.01 % guanine to MIC for Staphylococcus aureus NCTC 8325. The class given is functional.
For assay [14], the target named is T2, Inosine-5'-monophosphate dehydrogenase (Bacillus anthracis, UniProt A0A6L8P2U9). In words: Inhibition of Bacillus anthracis IMPDH preincubated for 10 mins before substrate addition by spectrophotometry.
Assay [15] addresses T1, Inosine-5'-monophosphate dehydrogenase. In words: Non-competitive inhibition of Cryptosporidium IMPDH preincubated for 10 mins before NAD+ substrate addition by spectrophotometry.
Assay [16] has as its target T2, Inosine-5'-monophosphate dehydrogenase. The assay can be described thus: Non-competitive inhibition of Bacillus anthracis IMPDH preincubated for 10 mins before IMP substrate addition by spectrophotometry.
For assay [17] the target is unchanged. The assay can be described thus: Non-competitive inhibition of Bacillus anthracis IMPDH preincubated for 10 mins before NAD+ substrate addition by spectrophotometry.
The target of assay [18] is T1, Inosine-5'-monophosphate dehydrogenase. The assay can be described thus: Un-competitive inhibition of Cryptosporidium IMPDH preincubated for 10 mins before IMP substrate addition by spectrophotometry.
The target is the same in assay [19]. The assay can be described thus: Competitive inhibition of Cryptosporidium IMPDH preincubated for 10 mins before NAD+ substrate addition by spectrophotometry.
The subject of assay [20] is Listeria monocytogenes. The assay can be described thus: Antibacterial activity against Listeria monocytogenes 10403S in presence of 0.01 % guanine. It is filed as functional.

Converted amounts (≈) assume the structure as drawn. The source made the active and inactive calls.

T2 sequence (A0A6L8P2U9 whole entry): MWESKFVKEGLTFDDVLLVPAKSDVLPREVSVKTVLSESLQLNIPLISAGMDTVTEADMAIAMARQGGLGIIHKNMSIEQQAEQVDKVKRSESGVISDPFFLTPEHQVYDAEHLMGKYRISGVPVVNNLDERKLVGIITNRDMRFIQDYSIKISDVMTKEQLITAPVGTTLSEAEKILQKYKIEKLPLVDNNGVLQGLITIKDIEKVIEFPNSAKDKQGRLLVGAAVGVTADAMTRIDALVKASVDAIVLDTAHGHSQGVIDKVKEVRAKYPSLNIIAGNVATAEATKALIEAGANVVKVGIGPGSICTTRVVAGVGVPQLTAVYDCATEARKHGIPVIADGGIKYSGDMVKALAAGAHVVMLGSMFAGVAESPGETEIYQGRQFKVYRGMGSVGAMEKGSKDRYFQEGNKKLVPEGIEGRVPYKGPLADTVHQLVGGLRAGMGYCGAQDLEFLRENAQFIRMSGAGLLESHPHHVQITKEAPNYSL

In the case of `C/C(=N\O)c1cccc(C(C)(C)NC(=O)Nc2ccc(Cl)c(C(=O)N3CCN(C)CC3)c2)c1`, the Ratio IC50 in [1] is under 0.5. This compound had an IC50 in [2] of 330 nM.
Turning to `C[C@@H](Oc1cccc2cnccc12)c1cn(-c2ccc(Cl)cc2)nn1`, the MIC in assay [3] was over 30 µM; in assay [5], 7.5 µM (≈ 2.63 µg/mL); in assay [6], 8 µM (≈ 2.81 µg/mL); in assay [7], over 30 µM; in assay [8], 3.8 µM (≈ 1.33 µg/mL); in [9], over 30 µM. In [10], this compound had an MIC of 2 µM (≈ 0.702 µg/mL). For the same compound, the Ratio in assay [4], in assay [11], in assay [12] and in assay [13] was 8 throughout.
As for `CC(C)C(Oc1cccc2ccccc12)C(=O)Nc1ccc(Cl)cc1` (centres undefined), in assay [1], the Ratio IC50 was under 0.5. In addition, the values for the IC50 in assay [14] and in assay [2] were 120 nM and 700 nM, respectively.
As to `C/C(=N\O)c1cccc(C(C)(C)NC(=O)Nc2ccc(Br)cc2)c1`, the Ratio IC50 in assay [1] is under 0.5. Moreover, the Ki in assay [15] stood at 15 nM; in assay [16], 48 nM; in [17], 2.3 nM; in [18] it was 12 nM. Moreover, inhibition in assay [2] was half-maximal at 9 nM (IC50).
With `C=C(C)c1cccc(C(C)(C)NC(=O)Nc2ccc(Cl)c(C(F)(F)F)c2)c1`, the Ratio IC50 in assay [1] is under 0.5.
For the compound `O=C(Nc1ccc(Cl)cc1)C(Oc1cccc2ccccc12)C1CC1` (centres undefined), in assay [1], the Ratio IC50 was under 0.5. This compound also came in with a half-inhibitory concentration (IC50) in assay [2] of over 5000 nM.
For `C[C@H](Nc1cccc(Cl)c1Cl)C(=O)Nc1ccc2oc(-c3ccncc3)nc2c1`, the Ratio IC50 in [1] is under 0.5. In assay [14], this compound showed an IC50 of 5 nM.
In the same order, the values of `C[C@H](Oc1cccc(Cl)c1Cl)C(=O)Nc1ccc2oc(-c3ccncc3)nc2c1` are under 0.5 and 10 nM.
As to `CC(Oc1ccc(-c2ccccc2)cc1)C(=O)Nc1ccc(Cl)cc1` (centres undefined), the Ratio IC50 in assay [1] is under 0.5. This compound showed an IC50 in assay [2] of 1100 nM.
Regarding `C[C@H](Oc1cccc2ccccc12)C(=O)Nc1ccc2oc(-c3ccncc3)nc2c1`, the Ki in [16] was 24 nM; in assay [19], 13 nM; in assay [17] it was 17 nM; in assay [18] it was 64 nM.
For the compound `C/C(=N\O)c1cccc(C(C)(C)NC(=O)Nc2ccc(Cl)c(C(=O)N3CCOCC3)c2)c1`, the MIC was 3.8 µM (≈ 1.74 µg/mL) in [5]; 2 µM (≈ 0.918 µg/mL) in assay [6]; over 30 µM in [7]; over 30 µM in assay [8]; 7.5 µM in [9]. Also, the Ratio in assay [11], in [12] and in [13] was 8 in each case.
As for `O=C(Nc1ccc(Cl)cc1)C(Oc1cccc2ccccc12)c1ccccc1` (centres undefined), the Ratio IC50 in assay [1] was under 0.5. Further, the IC50 is 2400 nM in assay [14] and over 5000 nM in assay [2].
For the compound `CCN(CC)C(=O)c1ccc(NC(=O)NC(C)(C)c2cccc(/C(C)=N/O)c2)cc1Cl`, the MIC in assay [3] was over 30 µM; in assay [5], 0.9 µM (≈ 0.4 µg/mL); in assay [6] it was 4 µM (≈ 1.78 µg/mL); in assay [7], over 30 µM; in assay [8], 15 µM (≈ 6.67 µg/mL); in assay [9] it was over 30 µM. For the same compound, in assay [10], 0.5 µM (≈ 0.222 µg/mL) was the least that counted as inhibitory (MIC). Besides, the Ratio in assay [4], in assay [11], in assay [12] and in [13] was 8 each time.
As to `C[C@H](Oc1cccc(Cl)c1Cl)C(=O)Nc1ccc2nc(-c3ccncc3)oc2c1`, the Ratio IC50 in assay [1] is under 0.5. The compound also displayed a half-inhibitory concentration (IC50) in [14] of 10 nM.
In the case of `C/C(=N\O)c1cccc(C(C)(C)NC(=O)Nc2ccc(Cl)c(C(F)(F)F)c2)c1`, the Ratio IC50 in assay [1] was under 0.5. This compound gave an IC50 in assay [14] of 2 nM.
As for `CC(Oc1cccc([N+](=O)[O-])c1Cl)C(=O)Nc1ccc2oc(-c3ccncc3)nc2c1` (centres undefined), the Ratio IC50 in [1] is under 0.5. Besides, the IC50 in [14] came out at 14 nM; in assay [2], 49 nM.
Take `C/C(=N\O)c1cccc(C(C)(C)NC(=O)Nc2ccc(Cl)c(C(N)=O)c2)c1`: the Ki in assay [15] is 6 nM; in assay [16], 1.5 nM; in assay [17], 8 nM; in assay [18] it was 2 nM.
On the same counts, the results for `O=C(Cn1c(-c2ccccn2)nc2ccccc21)Nc1ccc2ccccc2c1` are 14 nM, 820 nM, 44 nM and 13 nM.
Take `C[C@H](Oc1cccc(Cl)c1Cl)C(=O)Nc1cccc(NC(=O)c2ccncc2)c1`: in assay [1], the Ratio IC50 is under 0.5. Moreover, the IC50 in assay [14] amounted to 300 nM.
On to `Cn1nc(CC(=O)Nc2ccc3oc4c(c3c2)CCCC4)c2ccccc2c1=O`, for which the Ki in assay [15] was 49 nM; in [16], 12 nM; in assay [17], 500 nM; in [18], 5 nM.
For `C[C@H](C(=O)Nc1ccc2oc(-c3ccncc3)nc2c1)c1ccccc1`, in assay [1], the Ratio IC50 is under 0.5.
For `O=C(COc1cccc2ccccc12)Nc1ccc(Br)cc1`, the Ratio IC50 in [1] is under 0.5. Besides, the IC50 in assay [14] is 760 nM; in assay [2], over 5000 nM.
For `C[C@@H](Oc1cc[n+]([O-])c2ccccc12)c1cn(-c2ccc(Cl)cc2)nn1`, the MIC in assay [3] is 8 µM; in [5], 1.8 µM (≈ 0.66 µg/mL); in assay [6], 2 µM (≈ 0.734 µg/mL); in [7] it was 16 µM; in assay [8], 7.5 µM (≈ 2.75 µg/mL); in [9] it was over 30 µM. In assay [10], this compound had an MIC of 1 µM (≈ 0.367 µg/mL). Besides, the Ratio in assay [4], in assay [11], in assay [12] and in [13] was 8 in each case. Besides, the Ki stood at 38 nM in [16], 5 nM in assay [19], 58 nM in assay [17] and 5 nM in assay [18]. Also, the MIC result in [20] is “inactive”.
Turning to `CC(=O)c1cccc(CNC(=O)Nc2ccc(Cl)cc2)c1`, the Ratio IC50 in [1] was under 0.5. Moreover, the half-maximal inhibitory concentration (IC50) is 1200 nM in assay [14] and over 5000 nM in assay [2].
In the same order, the values of `C/C(=N\O)c1cccc(C(C)(C)NC(=O)Nc2ccc(Cl)c(Cl)c2)c1` are under 0.5, 95 nM and 190 nM.

A word on the IC50: it is the midpoint of a concentration-inhibition curve. A higher IC50 goes with lower potency. In general, MIC refers to the smallest concentration in the dilution series that meets the test's criterion for growth inhibition. As a reminder, the Ki is a dissociation constant, usually derived from enzyme kinetics or from competition with a known ligand.

The values above are taken from ChEMBL document CHEMBL3351409, “Repurposing cryptosporidium inosine 5'-monophosphate dehydrogenase inhibitors as potential antibacterial agents” (ACS Med Chem Lett, 2014).
